Read-outs that look alike come from different tables or passages of the source.
How the values were obtained:
[1] = molecular target: T1, Ser1981 of ataxia-telangiectasia mutated (ATM) (Homo sapiens, UniProt Q13315); assay: Inhibition of phosphorylation of Ser1981 of ATM in UT-SCC-54C cells, western immunoblotting; format: cell-based; conditions: oxia, 10 Gy, FIG. 7 (10 μM)
T1 construct: Ser1981 of ataxia-telangiectasia mutated (ATM) in UT-SCC-54C cells

Ser2056 of DNA-PKcs = Ser2056 of DNA-PKcs (Homo sapiens, UniProt P78527); assay: Inhibition of cellular autophosphorylation at Ser2056 of DNA-PKcs in UT-SCC-54C cells, western immunoblotting; format: cell-based; conditions: oxia, 10 Gy, FIG. 7 (10 μM)
[2] = tested on: UT-SCC-54C tumour xenografts; assay: Radiosensitisation of UT-SCC-54C HNSCC tumours, ex vivo clonogenic assay of tumour xenografts; format: in vivo, female NIH-III mice
HAP1 cells = assay: Radiosensitisation of HAP1 wild type cells, regrowth assay; format: cell-based, human; conditions: for effect in unirradiated HAP1 cells: 0 Gy; for radiosensitisation / differential growth inhibition of HAP1 cells: 3 Gy cobalt-60 gamma irradiation relative to radiation-only
UT-SCC-54C cells [3] = assay: Radiosensitisation of UT-SCC-54C HNSCC cells, clonogenic survival, oxic and anoxic (Table 18); format: cell-based, human
UT-SCC-54C cells [4] = assay: Radiosensitisation of UT-SCC-54C HNSCC cells, regrowth (sulforhodamine B) assay, oxic (Table 16); format: cell-based, human; conditions: for S50: compound in combination with 3 Gy of radiation, 50% inhibition of regrowth fraction, UT-SCC-54C, oxic
[5] = tested on: UT-SCC-54C tumour xenografts; assay: Inhibition of UT-SCC-54C tumour growth, tumour xenograft study; format: in vivo, female NIH-III mice
ATR/ATRIP = ATR/ATRIP (Homo sapiens, UniProt Q13535); assay: ATR/ATRIP Human PIKK Kinase Enzymatic Radiometric Assay, KinaseProfiler (Eurofins Discovery); format: biochemical; conditions: Km ATP, Table 15, read-out: Inhibition of PIKK kinase activity ATR
ATM = ATM (Homo sapiens, UniProt Q13315); assay: ATM Human PIKK Kinase Enzymatic ELISA/EIA Assay, KinaseProfiler (Eurofins Discovery); format: biochemical; conditions: read-out: ATM, Percent of control at 1 μM
HAP1/PRKDC−/− cells = assay: Radiosensitisation of DNA-PK null HAP1/PRKDC−/− cells, regrowth assay; format: cell-based, human
human PI3Kα (p110α/p85α) = human PI3Kα (p110α/p85α) (Homo sapiens, UniProt P42336); assay: Inhibition of PI3Kα kinase activity, ADP-Glo Assay (Reaction Biology); format: biochemical; conditions: 10 μM ATP; mean of two replicates; Table 12; read-out: Inhibition of kinase activity (as IC50) PICK
human mTOR = human mTOR (Homo sapiens, UniProt P42345); assay: Inhibition of mTOR kinase activity, HotSpot assay, phosphorylation of 4EPB1
human DNA-PK = human DNA-PK (Homo sapiens, UniProt P78527); assay: Inhibition of DNA-PKcs kinase activity, HotSpot assay (Reaction Biology), [γ-33P]-ATP phosphorylation of peptide substrate; format: biochemical

Sequence of ATR/ATRIP (Q13535 whole entry): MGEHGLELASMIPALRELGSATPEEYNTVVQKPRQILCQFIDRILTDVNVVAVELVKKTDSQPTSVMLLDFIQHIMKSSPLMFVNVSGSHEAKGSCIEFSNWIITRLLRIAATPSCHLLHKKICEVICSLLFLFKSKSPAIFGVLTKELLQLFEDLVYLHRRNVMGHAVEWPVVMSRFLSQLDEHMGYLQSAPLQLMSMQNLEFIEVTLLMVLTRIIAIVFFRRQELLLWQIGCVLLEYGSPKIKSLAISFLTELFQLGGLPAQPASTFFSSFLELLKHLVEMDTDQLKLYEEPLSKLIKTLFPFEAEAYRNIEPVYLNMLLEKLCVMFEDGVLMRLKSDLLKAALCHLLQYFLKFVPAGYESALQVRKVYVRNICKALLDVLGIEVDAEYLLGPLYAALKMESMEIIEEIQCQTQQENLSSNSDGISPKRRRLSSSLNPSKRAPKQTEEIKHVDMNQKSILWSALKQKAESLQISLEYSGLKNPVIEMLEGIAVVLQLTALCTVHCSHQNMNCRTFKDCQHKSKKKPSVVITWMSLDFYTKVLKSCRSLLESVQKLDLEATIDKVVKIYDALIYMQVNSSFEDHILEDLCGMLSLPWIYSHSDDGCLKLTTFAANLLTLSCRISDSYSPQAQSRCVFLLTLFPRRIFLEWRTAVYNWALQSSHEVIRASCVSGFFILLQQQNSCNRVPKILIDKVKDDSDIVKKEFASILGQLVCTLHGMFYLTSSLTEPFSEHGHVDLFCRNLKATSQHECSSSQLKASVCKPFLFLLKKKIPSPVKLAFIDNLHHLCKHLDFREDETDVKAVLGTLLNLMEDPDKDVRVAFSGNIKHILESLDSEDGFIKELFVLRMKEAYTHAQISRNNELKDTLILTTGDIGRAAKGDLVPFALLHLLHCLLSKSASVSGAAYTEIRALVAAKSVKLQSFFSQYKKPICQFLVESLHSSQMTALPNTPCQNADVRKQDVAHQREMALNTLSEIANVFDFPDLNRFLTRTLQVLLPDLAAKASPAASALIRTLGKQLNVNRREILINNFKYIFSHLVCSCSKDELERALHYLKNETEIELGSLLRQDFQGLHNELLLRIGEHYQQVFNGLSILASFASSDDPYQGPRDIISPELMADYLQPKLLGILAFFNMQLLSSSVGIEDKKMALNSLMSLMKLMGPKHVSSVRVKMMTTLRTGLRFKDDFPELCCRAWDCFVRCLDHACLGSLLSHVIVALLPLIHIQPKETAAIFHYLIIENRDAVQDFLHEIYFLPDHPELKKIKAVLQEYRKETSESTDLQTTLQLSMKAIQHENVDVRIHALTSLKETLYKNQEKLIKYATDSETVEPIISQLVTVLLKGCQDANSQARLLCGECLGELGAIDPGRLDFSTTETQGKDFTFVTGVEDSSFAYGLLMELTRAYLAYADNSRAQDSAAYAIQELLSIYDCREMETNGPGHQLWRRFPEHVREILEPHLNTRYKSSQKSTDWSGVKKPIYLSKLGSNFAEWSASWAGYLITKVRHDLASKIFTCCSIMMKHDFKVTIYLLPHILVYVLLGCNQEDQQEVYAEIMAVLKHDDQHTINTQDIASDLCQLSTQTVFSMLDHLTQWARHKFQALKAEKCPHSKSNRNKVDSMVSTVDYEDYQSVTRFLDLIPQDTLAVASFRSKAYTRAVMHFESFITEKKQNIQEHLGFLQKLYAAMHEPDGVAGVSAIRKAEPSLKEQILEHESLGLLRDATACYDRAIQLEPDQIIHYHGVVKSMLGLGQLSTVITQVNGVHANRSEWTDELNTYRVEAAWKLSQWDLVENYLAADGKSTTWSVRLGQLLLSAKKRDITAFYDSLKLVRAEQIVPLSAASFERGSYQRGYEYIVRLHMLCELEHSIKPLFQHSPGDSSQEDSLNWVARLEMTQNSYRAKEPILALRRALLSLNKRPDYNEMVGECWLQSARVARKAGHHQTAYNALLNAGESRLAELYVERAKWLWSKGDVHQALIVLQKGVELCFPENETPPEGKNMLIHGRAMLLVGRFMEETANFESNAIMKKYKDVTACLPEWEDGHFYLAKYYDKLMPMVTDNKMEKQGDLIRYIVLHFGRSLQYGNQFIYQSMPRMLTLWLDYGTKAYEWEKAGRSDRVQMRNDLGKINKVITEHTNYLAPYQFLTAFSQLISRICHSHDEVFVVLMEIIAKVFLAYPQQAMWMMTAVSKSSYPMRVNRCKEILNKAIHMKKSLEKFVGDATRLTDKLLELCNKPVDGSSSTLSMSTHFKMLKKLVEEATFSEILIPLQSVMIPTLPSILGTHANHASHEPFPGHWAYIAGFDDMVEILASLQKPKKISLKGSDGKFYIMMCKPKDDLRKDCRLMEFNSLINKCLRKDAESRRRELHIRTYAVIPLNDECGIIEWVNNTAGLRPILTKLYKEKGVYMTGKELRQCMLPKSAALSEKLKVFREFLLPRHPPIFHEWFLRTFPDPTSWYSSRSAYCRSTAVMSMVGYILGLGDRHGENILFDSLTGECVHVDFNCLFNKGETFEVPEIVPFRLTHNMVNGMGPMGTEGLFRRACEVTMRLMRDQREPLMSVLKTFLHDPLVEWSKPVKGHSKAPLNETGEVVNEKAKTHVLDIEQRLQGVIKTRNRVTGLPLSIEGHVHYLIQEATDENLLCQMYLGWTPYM
Sequence of ATR/ATRIP (Q8WXE1 whole entry partner): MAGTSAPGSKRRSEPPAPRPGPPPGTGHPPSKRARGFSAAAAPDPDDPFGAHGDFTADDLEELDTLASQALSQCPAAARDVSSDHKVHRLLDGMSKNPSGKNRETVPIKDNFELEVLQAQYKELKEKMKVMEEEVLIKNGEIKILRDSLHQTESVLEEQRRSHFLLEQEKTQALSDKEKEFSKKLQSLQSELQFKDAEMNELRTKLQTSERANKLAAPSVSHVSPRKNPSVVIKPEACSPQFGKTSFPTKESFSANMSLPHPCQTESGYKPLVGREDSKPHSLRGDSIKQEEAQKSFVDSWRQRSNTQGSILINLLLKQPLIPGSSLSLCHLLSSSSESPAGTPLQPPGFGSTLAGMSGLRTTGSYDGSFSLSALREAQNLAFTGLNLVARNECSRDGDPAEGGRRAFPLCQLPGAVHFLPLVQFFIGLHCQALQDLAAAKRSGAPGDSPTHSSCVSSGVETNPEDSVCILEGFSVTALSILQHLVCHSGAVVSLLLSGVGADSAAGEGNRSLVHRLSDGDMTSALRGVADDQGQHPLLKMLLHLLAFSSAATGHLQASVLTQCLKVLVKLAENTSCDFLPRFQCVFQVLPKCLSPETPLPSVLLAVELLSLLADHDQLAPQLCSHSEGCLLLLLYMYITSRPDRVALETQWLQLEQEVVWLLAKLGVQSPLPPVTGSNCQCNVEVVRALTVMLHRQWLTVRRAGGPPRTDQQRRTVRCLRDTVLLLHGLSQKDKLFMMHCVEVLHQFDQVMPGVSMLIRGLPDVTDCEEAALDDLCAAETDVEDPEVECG

`CC(C)n1c(=O)n(C)c2cnc3cc(F)c(-c4ccc(OCCCN5CCCCC5)nc4)cc3c21` [AZD1393, reference compound] was tested, and the “inhibition of phosphorylation of Ser1981 on ATM” value [1] was “inhibited” and the “inhibition of Ser2056 on DNA-PKcs” value (Ser2056 of DNA-PKcs) was “did not affect”.

With `COc1ccc(Nc2cc3c(cn2)n(C)c(=O)n3C2CCOCC2)c(C)c1` [Compound 121, 6-((4-Methoxy-2-methylphenyl)amino)-3-methyl-1-(tetrahydro-2H-pyran-4-yl)-1,3-dihydro-2H-imidazo[4,5-c]pyridin-2-one] the “reduction in clonogens/gram of tumour, compound with radiation compared to radiation alone” value ([2]; IP 50 mg/kg 15 min before and 6 h after 13 Gy whole-body irradiation) was “significant (p=0.005) additional reduction”, the “reduction in clonogens/gram of tumour tissue, compound alone” value ([2]; IP 2 x 50 mg/kg, no radiation, compared to DMSO control) was “no reduction” and the “effect in unirradiated HAP1 cells” value (HAP1 cells) was “little effect”. For the same molecule, the “radiosensitisation / differential growth inhibition of HAP1 cells” value (HAP1 cells) was “concentration-dependent radiosensitisation”, the “D1 (radiation dose for 1% surviving fraction)” value (UT-SCC-54C cells [3]; 0% O2, compound conc 1 μM) was 11.7 Gy and the “D10 (radiation dose for 10% surviving fraction)” value (UT-SCC-54C cells [3]; 0% O2, compound conc 1 μM) was 6.18 Gy. For the same molecule, the “D1 (radiation dose for 1% surviving fraction)” value (UT-SCC-54C cells [3]; 20% O2, compound conc 0.33 μM) was 1.29 Gy, the “D10 (radiation dose for 10% surviving fraction)” value (UT-SCC-54C cells [3]; 20% O2, compound conc 0.33 μM) was 4.63 Gy and the “D10 (radiation dose for 10% surviving fraction)” value (UT-SCC-54C cells [3]; 20% O2, compound conc 1 μM) was 2.65 Gy. The “D1 (radiation dose for 1% surviving fraction)” value (UT-SCC-54C cells [3]; 20% O2, compound conc 3 μM) was 3.44 Gy, the “D10 (radiation dose for 10% surviving fraction)” value (UT-SCC-54C cells [3]; 20% O2, compound conc 3 μM) was 1.73 Gy and the “radiosensitisation, clonogenic survival endpoint” value (UT-SCC-54C cells [3]; UT-SCC-54C, FIG. 8 and Table 18) was “concentration-dependent increases in radiosensitisation”. For the same molecule, the “radiosensitisation of UT-SCC-54C cells under oxic conditions” value (UT-SCC-54C cells [3]; oxic, clonogenic survival, FIG. 9) was “provides radiosensitisation”, the “S50” value (UT-SCC-54C cells [4]) was 0.34 µM and the “tumour growth inhibition in combination with radiation compared to radiation alone” value ([5]; PO 2×100 mg/kg, 10 Gy (P=0.007)) was “significant tumour growth inhibition”. The “tumour growth inhibition in combination with radiation compared to radiation alone” value ([5]; PO 2×400 mg/kg, 10 Gy (P=0.03)) was “significant tumour growth inhibition”, the “tumour growth inhibition, compound alone” value ([5]; PO, compared to DMSO control, FIG. 12A) was “little additional tumour growth inhibition” and the IC50 (ATR/ATRIP) was greater than 100 µM.

In the case of `Cc1cc2ncnn2cc1Nc1cc2c(cn1)n(C)c(=O)n2C1CCOCC1` [Compound 125, 3-Methyl-6-((7-methyl-[1,2,4]triazolo[1,5-a]pyridin-6-yl)amino)-1-(tetrahydro-2H-pyran-4-yl)-1,3-dihydro-2H-imidazo[4,5-c]pyridin-2-one], the remaining activity at 1 µM (ATM) is reported as 74%, the “radiosensitisation / differential growth inhibition of DNA-PK null HAP1 line” value (HAP1/PRKDC−/− cells; 3 Gy, HAP1/PRKDC−/−) is reported as “did not radiosensitise” and the IC50 (HAP1/PRKDC−/− cells; Homo sapiens, HAP1) is reported as greater than 10 µM. For the same molecule, the “effect in unirradiated HAP1 cells” value (HAP1 cells) was “little effect”, the “radiosensitisation / differential growth inhibition of HAP1 cells” value (HAP1 cells) was “concentration-dependent radiosensitisation” and the IC50 (HAP1 cells; Homo sapiens, HAP1, read-out: HAP1 wt IC50) was greater than 10 µM. For the same molecule, the IC50 (human PI3Kα (p110α/p85α)) was 10.7 µM, the “D1 (radiation dose for 1% surviving fraction)” value (UT-SCC-54C cells [3]; 20% O2, compound conc 1 μM) was 4.90 Gy and the “D10 (radiation dose for 10% surviving fraction)” value (UT-SCC-54C cells [3]; 20% O2, compound conc 1 μM) was 2.49 Gy. The “SER1 (sensitiser enhancement ratio at 1% surviving fraction)” value (UT-SCC-54C cells [3]; 20% O2, compound conc 1 μM) was 1.77, the “SER10 (sensitiser enhancement ratio at 10% surviving fraction)” value (UT-SCC-54C cells [3]; 20% O2, compound conc 1 μM) was 2.17 and the “Plating efficiency drug/no drug” value (UT-SCC-54C cells [3]; 20% O2, compound conc 1 μM, no radiation) was 1.02. For the same molecule, the IC50 (UT-SCC-54C cells [4]; Homo sapiens, read-out: IC50) was greater than 10 µM, the “S50” value (UT-SCC-54C cells [4]) was 0.67 µM and the IC50 (human mTOR; Inhibition of PIKK kinase activity mTOR/FRAP (nM), HotSpot assay Reaction Biology Corp., Table 15) was 43900 nM. It also gave an IC50 (human mTOR; Inhibition of kinase activity (as IC50) mTOR (nM), 10 μM ATP, mean of two replicates, Table 12) of 43900 nM, an IC50 (ATR/ATRIP) greater than 1 µM and an IC50 (human DNA-PK; 10 μM ATP, 10 μg/ml DNA, mean of two replicates, Table 12, read-out: Inhibition of kinase activity (as IC50) DNA-PK (converted)) of 14.3 nM. The IC50 (human DNA-PK; HotSpot assay Reaction Biology Corp., Table 15, read-out: Inhibition of PIKK kinase activity DNA-PK) was 14.3 nM.

Reference: US20230365559A1, “NOVEL AMINOPYRIDINES AND THEIR USE IN TREATING CANCER” (priority 2020, published 2023)
